The experiment addresses T1, PFKFB3 (Homo sapiens, UniProt Q16875).
T1 construct: GST (cleaved yes); host or cells: Rosetta cells (bacteria)
The experiment is described as follows: PFK-2 kinase activity assay (coupled PPi-PFK assay), recombinant PFKFB3. It counts as biochemical. To be noted: recombinant PFKFB3, concentration course. The procedure:
Recombinant Protein Expression: PFKFB2, PFKFB1, and PFKFB3 constructs (Origene) were subcloned into GST expression vector. Mutation of PFKFB2 at K174 to G [3], H259 to A [4], and the double mutant were created using Quickchange methodology. All constructs were transformed into Rosetta cells (Milipore), expressed and induced following standard protocol. Bacteria were harvested via centrifugation and pellets resuspended in 10 mL sonication buffer (50 mM TrisHCl pH 7.5, 10% glycerol, 150 mM NaCl, 10 mM Imidazole, 10 uL 1M DTT, and 1 protease inhibitor tablet). Cells were sonicated (power lvl 5, 45 s, 4×, QSonica) at 4° C. and spun 10 krpm for 10 min at 4° C. to collect protein lysate. […] Protein concentration was determined by Nanodrop (Thermo).
The resultant F-2,6-BP levels were determined by pyrophosphate-fructose-6-phosphate phosphotransferase (PPi-PFK) activity. After the preincubation phase, the F-2,6-BP/PFK2 mixture was diluted 10× by 50 mM pH 8.0 Tris assay buffer, supplemented with 5 mM Mg^2+, 0.5 mM PPi and 1 mM F-6-P. The PPi-PFK activity was measured as the rate of NADH oxidation (ε340=6200 M^−1 cm^−1) following the addition of 150 μM NADH to a mixture of excess PPi-PFK, 0.1 μg/mL triosephosphate isomerase, 10 μg/mL glycerol-3-phosphate dehydrogenase, and 0.01 U/mL aldolase. […]

Usually IC50 stands for the point on the concentration scale where inhibition reaches its midpoint.

T1 sequence (Q16875 whole entry, species assumed): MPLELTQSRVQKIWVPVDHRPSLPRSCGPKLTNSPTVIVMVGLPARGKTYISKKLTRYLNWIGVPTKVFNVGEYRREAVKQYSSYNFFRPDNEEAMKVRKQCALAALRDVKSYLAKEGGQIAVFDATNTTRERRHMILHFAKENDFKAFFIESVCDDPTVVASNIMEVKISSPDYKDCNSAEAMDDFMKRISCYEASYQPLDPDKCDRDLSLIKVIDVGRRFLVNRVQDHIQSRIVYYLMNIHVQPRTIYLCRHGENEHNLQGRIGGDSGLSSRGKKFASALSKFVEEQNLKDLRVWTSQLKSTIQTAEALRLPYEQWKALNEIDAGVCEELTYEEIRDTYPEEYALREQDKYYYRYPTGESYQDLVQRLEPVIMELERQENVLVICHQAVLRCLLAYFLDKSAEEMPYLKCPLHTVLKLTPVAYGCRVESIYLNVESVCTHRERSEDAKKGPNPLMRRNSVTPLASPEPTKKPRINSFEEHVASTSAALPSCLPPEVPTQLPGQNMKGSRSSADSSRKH

Take `COc1ccccc1Nc1nnc(S)s1` [B2, 5-[(2-methoxyphenyl)amino]-1,3,4-thiadiazole-2-thiol]: the half-maximal inhibitory concentration (IC50) stood at 11.9 µM.
With `O=C(/C=C/c1ccc2ccc(C(F)(F)F)cc2n1)c1ccncc1` [PFK158] the figure was 8.94 µM.

(Values after patent publication US20260102379A1, “Inhibitor of PFKFB2 Kinase Activity and Cellular Glycolysis” (Oklahoma Medical Research Foundation, priority 2024, published 2026).)
